{"source": "ChEMBL document CHEMBL1201862", "about": "“PubChem BioAssay data set” (2004)", "key": {"[1]": {"biological_target": "Dual specificity protein kinase CLK4 (Homo sapiens, UniProt Q9HAZ1)", "sequence (Q9HAZ1 whole entry)": "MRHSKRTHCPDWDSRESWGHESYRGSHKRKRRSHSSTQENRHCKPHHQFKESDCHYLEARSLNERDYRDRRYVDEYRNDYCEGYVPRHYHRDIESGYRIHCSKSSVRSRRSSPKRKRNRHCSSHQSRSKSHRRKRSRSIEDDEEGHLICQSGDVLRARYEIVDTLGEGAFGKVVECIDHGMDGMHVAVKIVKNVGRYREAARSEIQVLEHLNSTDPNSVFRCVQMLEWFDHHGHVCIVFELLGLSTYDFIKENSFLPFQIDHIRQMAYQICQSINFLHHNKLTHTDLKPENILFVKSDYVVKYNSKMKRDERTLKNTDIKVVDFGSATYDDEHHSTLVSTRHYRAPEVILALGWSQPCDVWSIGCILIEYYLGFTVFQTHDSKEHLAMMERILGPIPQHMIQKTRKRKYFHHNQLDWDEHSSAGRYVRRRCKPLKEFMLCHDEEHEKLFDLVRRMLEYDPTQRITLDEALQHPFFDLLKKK", "type": "functional"}, "[2]": {"biological_target": "Dual specificity tyrosine-phosphorylation-regulated kinase 1A (Homo sapiens, UniProt Q13627)", "type": "functional"}, "[3]": {"biological_target": "Glycogen synthase kinase-3 beta (Homo sapiens, UniProt P49841)", "sequence (P49841 whole entry)": "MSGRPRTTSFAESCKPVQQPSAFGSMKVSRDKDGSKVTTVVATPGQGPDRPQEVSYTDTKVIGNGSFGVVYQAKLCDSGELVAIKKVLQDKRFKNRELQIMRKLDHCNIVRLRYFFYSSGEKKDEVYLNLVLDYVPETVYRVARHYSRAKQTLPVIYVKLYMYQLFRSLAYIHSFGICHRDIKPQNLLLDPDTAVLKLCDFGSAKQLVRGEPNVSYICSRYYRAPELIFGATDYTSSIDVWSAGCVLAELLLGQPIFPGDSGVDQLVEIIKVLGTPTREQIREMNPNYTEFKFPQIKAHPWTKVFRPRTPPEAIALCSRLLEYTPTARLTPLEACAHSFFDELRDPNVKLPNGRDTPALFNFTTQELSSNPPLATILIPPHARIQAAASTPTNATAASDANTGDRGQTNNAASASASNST", "type": "functional"}, "[4]": {"biological_target": "Glycogen synthase kinase-3 alpha (Homo sapiens, UniProt P49840)", "type": "functional"}, "[5]": {"biological_target": "Serine/threonine-protein kinase pim-1 (Homo sapiens, UniProt P11309)", "sequence (P11309 whole entry)": "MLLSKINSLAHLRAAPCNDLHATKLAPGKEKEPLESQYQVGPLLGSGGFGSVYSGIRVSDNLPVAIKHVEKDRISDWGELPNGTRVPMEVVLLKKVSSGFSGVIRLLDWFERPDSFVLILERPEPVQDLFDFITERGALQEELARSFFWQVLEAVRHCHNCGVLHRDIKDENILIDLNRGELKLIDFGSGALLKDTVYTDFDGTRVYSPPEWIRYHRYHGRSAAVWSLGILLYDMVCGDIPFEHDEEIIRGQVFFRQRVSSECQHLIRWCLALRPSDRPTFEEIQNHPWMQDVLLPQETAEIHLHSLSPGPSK", "type": "functional"}, "[6]": {"biological_target": "Cyclin-dependent kinase 19 (Homo sapiens, UniProt Q9BWU1)", "sequence (Q9BWU1 whole entry)": "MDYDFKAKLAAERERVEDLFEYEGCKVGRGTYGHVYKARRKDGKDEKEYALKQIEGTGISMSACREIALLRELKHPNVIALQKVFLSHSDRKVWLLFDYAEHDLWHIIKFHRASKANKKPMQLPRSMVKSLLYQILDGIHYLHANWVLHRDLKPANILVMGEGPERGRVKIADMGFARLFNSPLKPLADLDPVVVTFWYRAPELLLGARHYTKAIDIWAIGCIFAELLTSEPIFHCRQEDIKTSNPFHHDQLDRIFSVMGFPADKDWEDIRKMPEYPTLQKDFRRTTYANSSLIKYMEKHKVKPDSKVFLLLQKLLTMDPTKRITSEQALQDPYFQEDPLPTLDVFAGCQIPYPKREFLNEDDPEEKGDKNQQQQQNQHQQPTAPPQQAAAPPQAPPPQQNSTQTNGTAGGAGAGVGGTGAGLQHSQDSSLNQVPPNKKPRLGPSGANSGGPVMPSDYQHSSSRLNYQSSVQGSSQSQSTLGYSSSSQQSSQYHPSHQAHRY", "assay": "Navigating the Kinome. Panel member name: CDC2L6", "type": "functional"}, "[7]": {"biological_target": "T1, Streptokinase A (Streptococcus pyogenes serotype M1, UniProt P10520)", "T1 sequence (P10520 whole entry)": "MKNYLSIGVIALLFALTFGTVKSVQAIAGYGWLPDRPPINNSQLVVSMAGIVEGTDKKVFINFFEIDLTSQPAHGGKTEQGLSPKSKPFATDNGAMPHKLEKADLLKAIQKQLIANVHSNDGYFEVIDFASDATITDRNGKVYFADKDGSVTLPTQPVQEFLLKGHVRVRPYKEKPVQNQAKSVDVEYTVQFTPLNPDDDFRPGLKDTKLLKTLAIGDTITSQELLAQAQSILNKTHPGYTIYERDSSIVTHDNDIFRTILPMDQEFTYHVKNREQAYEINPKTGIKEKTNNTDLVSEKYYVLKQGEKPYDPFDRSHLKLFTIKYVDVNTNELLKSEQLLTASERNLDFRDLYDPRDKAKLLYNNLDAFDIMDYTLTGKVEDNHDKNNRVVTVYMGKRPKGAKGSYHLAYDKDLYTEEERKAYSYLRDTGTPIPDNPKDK", "assay": "S. pyogenes streptokinase expression inhibitors, potency, dose response, plasminogen activation absorbance, OD405 (AID 1914);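 further: secreted streptokinase activity via plasminogen activation per viability signal from cell pellet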", "type": "functional, Streptococcus pyogenes M1 GAS"}, "[8]": {"tested_on": "Streptococcus", "assay": "Group A Streptococcus viability loss, dose response, counter-screen for streptokinase expression inhibitor project, luminescence, BacTiterGlo (AID 1915);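 further: potency for reduction of bacterial viability or growth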", "type": "functional, organism-based"}, "[9]": {"tested_on": "Streptococcus sp. 'group A'", "assay": "growth inhibition of control SK(-) GAS strain, dose response, counter-screen for streptokinase expression inhibitor project, luminescence, kanamycin, BacTiterGlo, confirmation (AID 1900)", "type": "functional, organism-based"}, "[10]": {"assay": "cytotoxicity in HEK-293T cells, dose response, cytotoxicity control for BCR NF-kB inhibitor project, luminescence, B-cell screen hits (AID 489021);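 further: HEK-293T cells carrying an NF-kB luciferase reporter; cells exposed to compound for about 14 hours before viability readout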", "type": "functional, cell-based"}, "[11]": {"assay": "viability loss in Mcl1-dependent HMC-1-8 cells, dose response, selectivity assay for A1 inhibitor project, cell-based, luminescence, dry powder (AID 504415)", "type": "functional", "settings": "Homo sapiens"}, "[12]": {"biological_target": "MAP kinase-interacting serine/threonine-protein kinase 2 (Homo sapiens, UniProt Q9HBH9)", "type": "functional"}, "[13]": {"biological_target": "T2, Interleukin-1 receptor-associated kinase 4 (Homo sapiens, UniProt Q9NWZ3)", "T2 sequence (Q9NWZ3 whole entry)": "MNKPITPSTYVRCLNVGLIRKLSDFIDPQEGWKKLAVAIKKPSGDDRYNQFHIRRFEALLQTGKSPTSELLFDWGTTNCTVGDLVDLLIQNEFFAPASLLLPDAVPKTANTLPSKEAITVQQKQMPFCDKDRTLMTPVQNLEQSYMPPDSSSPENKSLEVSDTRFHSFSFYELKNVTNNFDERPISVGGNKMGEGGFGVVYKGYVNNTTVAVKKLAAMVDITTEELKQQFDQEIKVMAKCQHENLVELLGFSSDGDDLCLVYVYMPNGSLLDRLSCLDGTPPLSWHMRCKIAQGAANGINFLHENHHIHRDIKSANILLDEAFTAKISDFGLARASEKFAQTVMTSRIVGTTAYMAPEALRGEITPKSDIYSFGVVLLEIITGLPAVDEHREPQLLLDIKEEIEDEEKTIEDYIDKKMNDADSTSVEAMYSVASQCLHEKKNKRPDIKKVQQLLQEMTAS", "type": "functional"}, "[14]": {"biological_target": "Aurora kinase B (Homo sapiens, UniProt Q96GD4)", "sequence (Q96GD4 whole entry)": "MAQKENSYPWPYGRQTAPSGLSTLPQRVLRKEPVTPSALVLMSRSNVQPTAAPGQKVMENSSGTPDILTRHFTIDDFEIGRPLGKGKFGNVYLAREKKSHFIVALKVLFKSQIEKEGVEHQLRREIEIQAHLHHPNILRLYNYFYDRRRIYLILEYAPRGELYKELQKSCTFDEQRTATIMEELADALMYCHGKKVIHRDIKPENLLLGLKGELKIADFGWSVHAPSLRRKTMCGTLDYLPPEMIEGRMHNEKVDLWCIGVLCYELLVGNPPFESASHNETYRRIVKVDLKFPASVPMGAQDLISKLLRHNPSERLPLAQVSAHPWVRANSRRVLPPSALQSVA", "type": "functional"}, "[15]": {"biological_target": "Mitogen-activated protein kinase kinase kinase kinase 4 (Homo sapiens, UniProt O95819)", "sequence (O95819 whole entry)": "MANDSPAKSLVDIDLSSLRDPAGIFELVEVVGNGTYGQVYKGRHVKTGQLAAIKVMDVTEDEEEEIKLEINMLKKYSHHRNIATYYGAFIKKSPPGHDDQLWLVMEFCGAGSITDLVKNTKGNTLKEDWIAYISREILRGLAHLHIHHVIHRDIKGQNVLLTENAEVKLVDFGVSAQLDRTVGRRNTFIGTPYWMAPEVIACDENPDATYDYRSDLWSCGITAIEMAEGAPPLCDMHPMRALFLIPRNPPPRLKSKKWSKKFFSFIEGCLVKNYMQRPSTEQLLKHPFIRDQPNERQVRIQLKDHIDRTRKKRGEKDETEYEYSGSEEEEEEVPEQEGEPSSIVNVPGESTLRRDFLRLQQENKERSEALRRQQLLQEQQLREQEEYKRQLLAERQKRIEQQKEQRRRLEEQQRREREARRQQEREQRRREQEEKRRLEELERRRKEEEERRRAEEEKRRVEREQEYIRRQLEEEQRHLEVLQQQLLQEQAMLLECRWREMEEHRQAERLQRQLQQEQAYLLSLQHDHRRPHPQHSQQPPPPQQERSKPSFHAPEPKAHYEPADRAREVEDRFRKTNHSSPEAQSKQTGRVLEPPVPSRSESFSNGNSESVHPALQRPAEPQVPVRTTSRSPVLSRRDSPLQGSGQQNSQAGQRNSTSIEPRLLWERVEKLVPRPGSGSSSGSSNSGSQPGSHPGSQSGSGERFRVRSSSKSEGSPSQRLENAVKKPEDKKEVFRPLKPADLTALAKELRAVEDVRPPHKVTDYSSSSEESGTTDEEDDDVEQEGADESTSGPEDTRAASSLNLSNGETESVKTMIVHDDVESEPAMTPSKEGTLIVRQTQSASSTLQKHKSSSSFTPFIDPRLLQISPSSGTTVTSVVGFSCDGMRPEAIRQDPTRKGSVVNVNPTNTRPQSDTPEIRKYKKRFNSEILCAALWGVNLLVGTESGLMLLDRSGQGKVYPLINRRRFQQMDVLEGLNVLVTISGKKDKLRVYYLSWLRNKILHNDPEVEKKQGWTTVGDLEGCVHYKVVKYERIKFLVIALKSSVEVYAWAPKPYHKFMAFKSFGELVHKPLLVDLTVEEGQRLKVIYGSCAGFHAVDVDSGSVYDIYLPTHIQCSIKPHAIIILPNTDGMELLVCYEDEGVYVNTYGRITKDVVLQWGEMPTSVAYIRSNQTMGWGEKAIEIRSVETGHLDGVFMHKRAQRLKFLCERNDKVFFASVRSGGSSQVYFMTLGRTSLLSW", "type": "functional"}, "[16]": {"biological_target": "Homeodomain-interacting protein kinase 2 (Homo sapiens, UniProt Q9H2X6)", "type": "functional"}, "[17]": {"biological_target": "Aurora kinase A (Homo sapiens, UniProt O14965)", "sequence (O14965 whole entry)": "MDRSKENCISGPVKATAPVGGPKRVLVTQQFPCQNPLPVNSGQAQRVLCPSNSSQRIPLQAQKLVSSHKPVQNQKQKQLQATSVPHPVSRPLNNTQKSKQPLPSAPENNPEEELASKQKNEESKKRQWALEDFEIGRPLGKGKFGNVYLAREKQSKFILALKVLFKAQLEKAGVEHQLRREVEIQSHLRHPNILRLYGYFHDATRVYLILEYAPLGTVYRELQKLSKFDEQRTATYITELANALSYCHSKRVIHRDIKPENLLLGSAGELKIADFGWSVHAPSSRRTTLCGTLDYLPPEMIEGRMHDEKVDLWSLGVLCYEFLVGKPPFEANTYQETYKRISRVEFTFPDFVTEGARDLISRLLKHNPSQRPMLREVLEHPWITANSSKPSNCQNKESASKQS", "type": "functional"}, "[18]": {"biological_target": "cAMP-dependent protein kinase catalytic subunit alpha (Homo sapiens, UniProt P17612)", "type": "functional"}, "[19]": {"biological_target": "DNA topoisomerase (Yersinia pestis, UniProt A0A2S9PM60)", "assay": "Y. pestis Topo-I inhibitors, cleavage product readout, dose response, biochemical, cherry-pick (AID 588525)"}, "[20]": {"biological_target": "T3, Zinc finger protein mex-5 (Caenorhabditis elegans, UniProt Q9XUB2)", "T3 sequence (Q9XUB2 whole entry)": "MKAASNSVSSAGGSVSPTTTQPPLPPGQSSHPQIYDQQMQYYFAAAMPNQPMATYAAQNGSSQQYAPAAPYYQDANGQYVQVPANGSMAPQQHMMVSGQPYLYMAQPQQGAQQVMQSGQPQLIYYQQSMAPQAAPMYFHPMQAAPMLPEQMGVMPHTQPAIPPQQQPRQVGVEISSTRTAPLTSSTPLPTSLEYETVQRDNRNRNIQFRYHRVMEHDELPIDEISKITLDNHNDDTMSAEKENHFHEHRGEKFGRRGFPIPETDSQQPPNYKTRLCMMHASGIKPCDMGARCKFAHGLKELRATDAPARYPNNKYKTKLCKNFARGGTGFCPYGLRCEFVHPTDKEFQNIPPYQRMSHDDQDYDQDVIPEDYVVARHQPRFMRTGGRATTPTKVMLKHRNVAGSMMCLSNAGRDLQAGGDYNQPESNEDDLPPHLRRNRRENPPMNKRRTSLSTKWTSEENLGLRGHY", "assay": "MEX-5/TCR-2 RNA interaction inhibitors, dose response, biochemical, C. elegans, fluorescence polarization (AID 1960)"}, "[21]": {"biological_target": "Botulinum neurotoxin type A (Clostridium botulinum (strain Hall / ATCC 3502 / NCTC 13319 / Type A), UniProt P0DPI1)", "sequence (P0DPI1 2-448 limits assumed)": "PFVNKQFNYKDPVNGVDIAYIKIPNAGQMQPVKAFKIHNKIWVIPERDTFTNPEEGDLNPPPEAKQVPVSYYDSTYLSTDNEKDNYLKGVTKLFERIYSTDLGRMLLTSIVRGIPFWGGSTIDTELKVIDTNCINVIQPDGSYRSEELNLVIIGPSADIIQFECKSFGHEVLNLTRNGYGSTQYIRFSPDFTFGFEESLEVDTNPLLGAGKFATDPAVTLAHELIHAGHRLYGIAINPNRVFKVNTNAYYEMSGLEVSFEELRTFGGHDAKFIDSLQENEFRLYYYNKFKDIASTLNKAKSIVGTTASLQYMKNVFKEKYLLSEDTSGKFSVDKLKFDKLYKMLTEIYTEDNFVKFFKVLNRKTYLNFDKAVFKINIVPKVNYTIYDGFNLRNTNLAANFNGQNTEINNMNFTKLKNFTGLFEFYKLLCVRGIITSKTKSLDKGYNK", "assay": "High-throughput multiplex microsphere dose response for inhibitors of toxin protease, specifically Botulinum neurotoxin light chain A protease, compounds from Cherry Pick 01.", "type": "functional", "settings": "read-out: EC50_MICROM"}, "[22]": {"biological_target": "T4, Corticotropin-releasing factor receptor 2/Corticotropin-releasing factor-binding protein (Homo sapiens, UniProt P24387+Q13324)", "T4 sequence (Q13324 whole entry)": "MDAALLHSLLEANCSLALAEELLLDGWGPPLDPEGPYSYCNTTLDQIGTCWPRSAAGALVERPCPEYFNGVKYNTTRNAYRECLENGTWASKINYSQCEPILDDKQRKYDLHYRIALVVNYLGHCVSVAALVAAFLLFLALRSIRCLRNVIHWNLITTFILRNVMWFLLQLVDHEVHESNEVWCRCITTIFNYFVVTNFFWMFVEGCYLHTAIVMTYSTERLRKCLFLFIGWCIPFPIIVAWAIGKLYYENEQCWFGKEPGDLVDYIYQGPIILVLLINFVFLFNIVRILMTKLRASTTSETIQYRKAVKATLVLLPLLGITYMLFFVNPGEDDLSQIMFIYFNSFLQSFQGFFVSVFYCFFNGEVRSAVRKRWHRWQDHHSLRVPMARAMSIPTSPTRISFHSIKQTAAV", "T4 sequence (P24387 whole entry)": "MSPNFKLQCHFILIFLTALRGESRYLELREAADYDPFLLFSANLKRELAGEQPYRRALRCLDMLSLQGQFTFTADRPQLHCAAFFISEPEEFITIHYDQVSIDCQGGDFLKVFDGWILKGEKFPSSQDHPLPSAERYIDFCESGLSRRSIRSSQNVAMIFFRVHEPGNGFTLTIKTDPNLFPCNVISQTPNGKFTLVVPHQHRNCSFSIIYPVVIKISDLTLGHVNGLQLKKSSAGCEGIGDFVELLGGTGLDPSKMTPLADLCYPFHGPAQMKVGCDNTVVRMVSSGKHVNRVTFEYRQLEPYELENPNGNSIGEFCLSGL", "assay": "activators of CRF receptor 2 with binding protein – uHTS hits, confirmation (AID 602473)", "type": "functional", "settings": "read-out: EC50_Mean"}, "[23]": {"biological_target": "Lethal factor (Bacillus anthracis, UniProt P15917)", "assay": "High-throughput multiplex microsphere dose response for inhibitors of toxin protease, specifically Lethal Factor protease, compounds from Cherry Pick 01.", "type": "functional", "settings": "read-out: EC50_MICROM"}, "[24]": {"biological_target": "T5, RNA-binding protein pos-1 (Caenorhabditis elegans, UniProt G5EF15)", "T5 sequence (G5EF15 whole entry)": "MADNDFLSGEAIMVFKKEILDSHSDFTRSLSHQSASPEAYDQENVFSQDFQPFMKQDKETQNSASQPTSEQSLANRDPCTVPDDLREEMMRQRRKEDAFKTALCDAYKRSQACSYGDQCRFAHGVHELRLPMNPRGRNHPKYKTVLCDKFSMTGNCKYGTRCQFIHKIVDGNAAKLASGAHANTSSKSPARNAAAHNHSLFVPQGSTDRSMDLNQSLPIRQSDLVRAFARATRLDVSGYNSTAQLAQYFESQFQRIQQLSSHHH", "assay": "inhibitors of POS-1/mex-3 RNA binding, dose response, biochemical, fluorescence polarization (AID 1964);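 further: purified POS-1 fused to maltose binding protein made in E. coli; potency of compounds blocking POS-1 binding to fluorescent RNA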"}, "[25]": {"biological_target": "Botulinum neurotoxin type F (Clostridium botulinum, UniProt P30996)", "sequence (P30996 1-436 limits assumed)": "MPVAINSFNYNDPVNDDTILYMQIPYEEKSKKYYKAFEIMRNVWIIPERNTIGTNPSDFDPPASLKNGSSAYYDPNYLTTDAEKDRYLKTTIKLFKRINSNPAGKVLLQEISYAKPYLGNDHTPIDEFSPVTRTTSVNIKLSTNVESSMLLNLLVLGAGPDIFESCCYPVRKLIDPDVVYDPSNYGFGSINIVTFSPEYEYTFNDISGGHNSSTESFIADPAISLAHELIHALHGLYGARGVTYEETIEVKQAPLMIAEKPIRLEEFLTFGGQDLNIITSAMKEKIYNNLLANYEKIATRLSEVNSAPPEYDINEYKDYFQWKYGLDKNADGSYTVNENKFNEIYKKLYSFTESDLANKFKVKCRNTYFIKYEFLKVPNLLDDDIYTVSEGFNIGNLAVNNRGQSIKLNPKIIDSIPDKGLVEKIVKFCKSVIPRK", "assay": "High-throughput multiplex microsphere dose response for inhibitors of toxin protease, specifically Botulinum neurotoxin light chain F protease, compounds from Cherry Pick 01.", "type": "functional", "settings": "read-out: EC50_MICROM"}}, "note": "Calls of active or inactive are those of the source."}
{"compound": "COc1nc(N)c(C#N)c(-c2ccc(Cl)cc2Cl)c1C#N", "values": [{"measurement": "Ki", "setting": "[1]", "value": "7.94 µM (active)"}, {"measurement": "Ki", "setting": "[2]", "value": "5.01 µM (active)"}, {"measurement": "Ki", "setting": "[3]", "value": "2.51 µM (active)"}, {"measurement": "Ki", "setting": "[4]", "value": "2.51 µM (active)"}]}
{"compound": "O=C1CC(c2ccccc2)Cc2[nH]c3cc(Cl)ccc3c(=O)c21", "note": "(centres undefined)", "values": [{"measurement": "Ki", "setting": "[1]", "value": "3.98 µM (active)"}, {"measurement": "Ki", "setting": "[5]", "value": "2.51 µM (active)"}, {"measurement": "Ki", "setting": "[6]", "value": "> 100 µM (inactive)"}]}
{"compound": "O=C(Oc1cccc(/C=N/Nc2nc(Nc3ccccc3)nc(N3CCOCC3)n2)c1)c1ccco1", "values": [{"measurement": "EC50", "setting": "[7]", "value": "> 150 µM (not active)"}, {"measurement": "EC50", "setting": "[8]", "value": "16 µM (active)"}, {"measurement": "EC50", "setting": "[9]", "value": "9.28 µM (active)"}, {"measurement": "IC50", "setting": "[10]", "value": "> 80 µM (inactive)"}, {"measurement": "AC50", "setting": "[11]", "value": "56.1 µM (active)"}]}
{"compound": "Cc1ccc(Nc2nccc(Nc3ccccc3C(=O)O)n2)cc1F", "values": [{"measurement": "Ki", "setting": "[12]", "value": "0.251 µM (active)"}, {"measurement": "Ki", "setting": "[13]", "value": "3.98 µM (active)"}, {"measurement": "Ki", "setting": "[1]", "value": "0.0794 µM (active)"}, {"measurement": "Ki", "setting": "[5]", "value": "0.158 µM (active)"}, {"measurement": "Ki", "setting": "[3]", "value": "0.00316 µM (active)"}, {"measurement": "Ki", "setting": "[14]", "value": "0.00501 µM (active)"}, {"measurement": "Ki", "setting": "[15]", "value": "0.2 µM (active)"}, {"measurement": "Ki", "setting": "[16]", "value": "0.00631 µM (active)"}, {"measurement": "Ki", "setting": "[17]", "value": "0.0158 µM (active)"}, {"measurement": "Ki", "setting": "[18]", "value": "> 7.94 µM (inactive)"}]}
{"compound": "O=C(C[C@H]1C/C=C\\CC[C@H](Cc2ccc(F)cc2)C(=O)O[C@@H](c2ccccc2)CNC1=O)N[C@@H](CO)Cc1ccccc1", "values": [{"measurement": "AC50", "setting": "[19]", "value": "> 38 µM (inactive)"}]}
{"compound": "O=c1c(/C=C(\\O)c2ccccc2)nc2ccccc2n1-c1ccccc1", "values": [{"measurement": "EC50", "setting": "[20]", "value": "6.1 µM (inconclusive)"}, {"measurement": "EC50", "setting": "[21]", "value": "20 µM (inactive)"}, {"measurement": "EC50", "setting": "[22]", "value": "11.6 µM (active)"}, {"measurement": "EC50", "setting": "[23]", "value": "20 µM (inactive)"}, {"measurement": "EC50", "setting": "[24]", "value": "78.2 µM (inconclusive)"}, {"measurement": "EC50", "setting": "[25]", "value": "20 µM (inactive)"}]}
